Experimental data published in patent US20220401324A1, “COSMETIC PREPARATION WITH ANISIC ACID AND LEVULINIC ACID, HAVING SELECTIVE ANTIMICROBIAL EFFECT” (BEIERSDORF AG, priority 2019, published 2022).

Legend:
C. acnes (DSM 1897) = assay: Suspension test with C. acnes; format: cell-based, Cutibacterium acnes; settings: anaerobic medium, sampled after 1 h, 3 h and 6 h
Method: (§1) The effect of the formulations according to the invention was further tested in suspension tests with S. epidermidis and C. acnes. […] These liquid stock cultures were used to prepare a first passage. Here, a sterile disposable inoculation loop was used to streak the relevant culture on an agar plate (C. acnes: COST agar, S. epidermidis: COAST agar) and the culture was then incubated. The cultures of C. acnes were incubated at 37° C. for 5 days, whereas the cultures of S. epidermidis were incubated at 37° C. for 24 h. Said first passage was then used to prepare a second passage by picking of a few colonies using a sterile disposable inoculation loop and subsequent streaking thereof onto a new agar plate. Said second passage was then incubated at the appropriate temperature for 5 days or 24 h. The second passage obtained was then used for the suspension test.
(§2) To prepare the suspensions, a few colonies of the second passage were removed using a sterile inoculation loop and added to 10 mL of medium in a baffled flask containing 5 g of glass beads (4 mm diameter) and gently shaken for 3 min. Thereafter, optical density (OD) was used to set the approximate number of cells per mL. Optical density was determined at 600 nm using an Eppendorf photometer. The OD obtained was adjusted to a value around 0.8 (±0.01) and then diluted again 1:50. […]

[1] = test system: S. epidermidis (DSM 1798); assay: Suspension test with S. epidermidis; format: cell-based, Staphylococcus epidermidis; settings: BHI medium, sampled after 1 h, 3 h and 6 h
Method: as §1, §2

Row | Structure (SMILES) | cell count of the anaerobic bacterium C. acnes (FIGS. 4 and 5) (C. acnes (DSM 1897)) | growth of the aerobic bacterium S. epidermidis (FIGS. 4 and 5) [1]
1 | COc1ccc(C(=O)O)cc1 [anisic acid, 4-methoxybenzoic acid] | does not lead to a reduction in the cell count | does not significantly affect the growth
2 | CC(=O)CCC(=O)O [levulinic acid, 4-oxopentanoic acid] | does not lead to a reduction in the cell count | does not significantly affect the growth
